Test results as given in patent US8492422B2, “Ester pro-drugs of [3-(1-(1H-imidazol-4-yl)ethyl)-2-methylphenyl] methanol for treating skin diseases and conditions” (Allergan, Inc., priority 2010, dated 2013).

Test: In Vitro Human Skin Permeability Assay (static Franz diffusion cells)
Conditions: in vitro Franz diffusion cell; 0.65% (Compound 2) and 0.55% (Compound 1) (w/w) dose; 48 hour dose exposure; 5 mg formulation/cm^2
Protocol: To assure the integrity of each skin section, its permeability to tritiated water was determined before application of the test products.

SMILES: Cc1c(COC(=O)C(C)C)cccc1[C@H](C)c1c[nH]cn1 [Compound 1, iso-Butyric acid 3-[(S)-1-(1H-imidazol-4-yl)-ethyl]-2-methyl-benzyl ester]
- penetration into and through ex vivo human trunk skin (percutaneous absorption): penetrate into and through ex vivo human trunk skin
